Converted amounts (≈) assume the structure as drawn.
Key:
[1] = tested on: human red blood cells (hRBC); assay: Hemolytic activity; format: cell-based; conditions: 250 μg/mL, 1 h at 37° C.
Method: Hemolytic activity of the peptidomimetics was evaluated on human red blood cells (hRBC) as described previously with minor modifications [FEBS J, 273:4040-4054, 2006; Biochim Biophys Acta., 1798:1864-1875, 2010]. Briefly, 100 μL of fresh hRBC suspension 4% v/v in NaCl/Pi (35 mM phosphate buffer, 150 mM NaCl, pH 7.2) was placed in a 96-well plate. After incubation of the peptidomimetics (100 μL) in the hRBC suspension for 1 h at 37° C., the plates were centrifuged and supernatant (100 μL) was transferred to fresh 96-well plate. Absorbance was read at 540 nm using ELISA plate reader (Molecular Devices). Percent hemolysis was calculated using the following formula: % hemolysis=100[(A−A0)/(At−A0)]
Where, A represents absorbance of sample wells at 540 nm. Also A0 and At represents 0% and 100% hemolysis determined in NaCl/Pi and 1% Triton X-100, respectively (Table 2). […] Peptidomimetics 1e and 1f caused 31% and 30% hemolysis at 250 μg/mL. Peptidomimetics 2d, 2e and 2f caused significant hemolysis with 83%, 96% and 88% damage to hRBCs at […] respectively.

[2] = tested on: MRSA (ATCC 33591) biofilm; assay: 24 h preformed mature biofilm (alamar blue, crystal violet); format: cell-based, Staphylococcus aureus; conditions: 20×MICb: 1c 140 μg/mL, 1d 70 μg/mL, VAN 20 μg/mL
Method: To evaluate potential of designed active peptidomimetics against MRSA biofilms a methodology as used previously was employed with minor modifications [Antimicrob. Agents Chemother., 57:2726-2737, 2013]. Briefly, freshly inoculated MRSA (ATCC 33591) was grown in biofilm growth media (TSB supplemented with 0.5% w/v NaCl and 0.25% w/v glucose) overnight. Next day, the culture was diluted in fresh biofilm growth media to 10^5 CFU/mL. 200 μl of diluted culture was dispensed in wells of a 96-well polystyrene plate for biofilm formation. […] Biofilm cultures were re-incubated at 37° C. for 24 h. After removal of medium, the biofilms were further washed twice with sterile NaCl/Pi buffer and assessed for metabolic activity (alamar blue assay) and biomass quantification (Crystal violet assay).

[3] = tested on: methicillin resistant S. aureus (ATCC 33591); assay: MIC, serial broth dilution; format: cell-based, Staphylococcus aureus; conditions: MHB, 18 h, 37° C.
Method: (§1) The peptidomimetics designed in present invention were evaluated as antibacterial therapeutics against a broad range of bacterial strains by broth microdilution method. The antibacterial activity of the peptidomimetics was reported in terms of the minimum inhibitory concentrations (MIC).
(§2) Following bacterial strains were used in this study: S. aureus (ATCC 29213), methicillin resistant S. aureus (ATCC 33591), Staphylococcus epidermidis (ATCC 12228), methicillin resistant Staphylococcus epidermidis(ATCC 51625), Enterococcus faecalis (ATCC 7080), Escherichia coli (ATCC 11775), and Acinetobacter baumannii (ATCC 19606). Antibacterial activity was evaluated using a modified serial broth dilution method in accordance with Clinical Laboratory Standard Institute guidelines [Methods for dilution antimicrobial susceptibility tests for bacteria that grow aerobically-7th ed. Approved standard M7-A7. Clinical and Laboratory Standards Institute, Wayne, Pa., Biochim. Biophys. Acta 1798:1864-1875, 2010.]. Briefly, the inoculums were prepared from mid-log phase bacterial cultures. Peptidomimetics were incubated with bacterial suspension in Muller Hinton broth media (10^5 CFU/mL) in 96 well microtitre plate. The plates were incubated overnight with agitation (200 rpm) at 37° C. After 18 h, absorbance was measured at 630 nm. Cultures without test peptidomimetics were used as positive control. Un-inoculated Mueller Hinton Broth (MHB) was used as negative control. Tests were carried out in duplicate on at least three different days. […] For comparison standard peptide antibiotics vancomycin (VAN) and polymyxin B (PMB) were also assayed under identical conditions (Table 2). […] Further, antibacterial activity of active peptidomimetics 1c and 1d were also evaluated against MRSA in presence of 25% v/v human serum as well as bovine serum.

S. aureus (ATCC 29213) = assay: MIC, serial broth dilution; format: cell-based, Staphylococcus aureus; conditions: MHB, 18 h, 37° C.
Method: as §1, §2

[4] = tested on: Staphylococcus epidermidis (ATCC 12228); assay: MIC, serial broth dilution; format: cell-based; conditions: MHB, 18 h, 37° C.
Method: as §1, §2

[5] = tested on: Acinetobacter baumannii (ATCC 19606); assay: MIC, serial broth dilution; format: cell-based; conditions: MHB, 18 h, 37° C.
Method: as §1, §2

[6] = tested on: methicillin resistant Staphylococcus epidermidis (ATCC 51625); assay: MIC, serial broth dilution; format: cell-based; conditions: MHB, 18 h, 37° C.
Method: as §1, §2

[7] = tested on: Enterococcus faecalis (ATCC 7080); assay: MIC, serial broth dilution; format: cell-based; conditions: MHB, 18 h, 37° C.
Method: as §1, §2

S. aureus (ATCC 33591) = assay: Resistance development study, serial passage at sub MIC; format: cell-based, Staphylococcus aureus; conditions: 17 serial passages at sub MIC
Method: FIG. 5: Illustration of resistance development study in S. aureus (ATCC 33591) after 17 serial passages with sub MIC of 1c/1d or antibiotic treatment. The fold change in MIC is the ratio of the MIC after 17 passages relative to that MIC observed before first passage.
To determine potential of active peptidomimetics against resistance development, in vitro serial passage method at sub inhibitory concentration was done. Briefly, bacterial suspension (100 μL) from duplicate wells at the concentration of sub-MIC was used to inoculate fresh culture. The culture was grown to obtain approximately 10^5 CFU/mL for the next experiment. These bacterial suspensions were then incubated with desired concentration of antibacterial agents for 18 h to determine new MIC. The same sub culturing protocol was used for next 16 passages and MIC was determined using OD630 nm as described previously in the text [Chem. Biol., 20:1286-1295, 2013.]

MRSA = assay: MIC in presence of 25% v/v human serum; format: cell-based, Staphylococcus aureus
Method: Following bacterial strains were used in this study: S. aureus (ATCC 29213), methicillin resistant S. aureus (ATCC 33591), Staphylococcus epidermidis (ATCC 12228), methicillin resistant Staphylococcus epidermidis(ATCC 51625), Enterococcus faecalis (ATCC 7080), Escherichia coli (ATCC 11775), and Acinetobacter baumannii (ATCC 19606). Antibacterial activity was evaluated using a modified serial broth dilution method in accordance with Clinical Laboratory Standard Institute guidelines [Methods for dilution antimicrobial susceptibility tests for bacteria that grow aerobically-7th ed. Approved standard M7-A7. Clinical and Laboratory Standards Institute, Wayne, Pa., Biochim. Biophys. Acta 1798:1864-1875, 2010.]. Briefly, the inoculums were prepared from mid-log phase bacterial cultures. Peptidomimetics were incubated with bacterial suspension in Muller Hinton broth media (10^5 CFU/mL) in 96 well microtitre plate. The plates were incubated overnight with agitation (200 rpm) at 37° C. After 18 h, absorbance was measured at 630 nm. Cultures without test peptidomimetics were used as positive control. Un-inoculated Mueller Hinton Broth (MHB) was used as negative control. Tests were carried out in duplicate on at least three different days. […] Further, antibacterial activity of active peptidomimetics 1c and 1d were also evaluated against MRSA in presence of 25% v/v human serum as well as bovine serum.

MRSA (ATCC 33591) = assay: Planktonic MIC in biofilm media (MICb); format: cell-based, Staphylococcus aureus; conditions: TSB with 0.5% NaCl and 0.25% glucose

SMILES | % H, percentage hemolysis of human RBCs [1] [%] | biomass remaining compared to control, 24 h pre-formed biofilm (crystal violet) [2] [%] | MIC MRSA (ATCC 33591) [3] [µg/mL] | MIC S. aureus (ATCC 29213) (S. aureus (ATCC 29213)) [µg/mL] | MIC S. epidermidis (ATCC 12228) [4] [µg/mL] | MIC A. baumannii (ATCC 19606) [5] [µg/mL] | MIC MRSE (ATCC 51625) [6] [µg/mL] | MIC E. facaelis (ATCC 7080) [7] [µg/mL] | increase in MIC after 17 passages (S. aureus (ATCC 33591)) [fold] | increase in MIC in human serum (MRSA) [fold] | MICb, planktonic MIC in biofilm media (MRSA (ATCC 33591)) [µg/mL]
CCCCCCCCCC(=O)NC(Cc1c[nH]c2ccccc12)C(=O)NC(Cc1c[nH]c2ccccc12)C(=O)NCCCNCCCCNCCCN (stereo not shown) [1d] | 9 | 21.4±9.2 | 1.7 (≈ 2.33 µM) | 0.0017 (≈ 0.00233 µM) | 1.7 (≈ 2.33 µM) | 0.1136 (≈ 0.156 µM) | 0.0017 (≈ 0.00233 µM) | 0.0035 (≈ 0.0048 µM) | 2 | 8 | 3.5
NCCCNCCCCNCCCNC(=O)C(Cc1c[nH]c2ccccc12)NC(=O)C(Cc1c[nH]c2ccccc12)NC(=O)Cc1ccc(C(F)(F)F)cc1 (stereo not shown) [1c] | 2 | 24.0±13.4 | 3.5 (≈ 4.6 µM) | 0.0017 (≈ 0.00223 µM) | 1.7 (≈ 2.23 µM) | 0.0284 (≈ 0.0373 µM) | 0.0035 (≈ 0.0046 µM) | 0.0284 (≈ 0.0373 µM) | 4 | 4 | 7.1
